According to paper PMC6326728, “eIF2B activator prevents neurological defects caused by a chronic integrated stress response” (eLife, 2019):

What was measured:
eIF2B = target: T1, eIF2B (Mus musculus, UniProt Q61749+Q99LD9); assay: GEF assay, Bodipy-FL-GDP release from eIF2, fluorescence; type: biochemical; conditions: activator; MEF lysate 0.1 mg/mL; 25 nM Bodipy-FL-GDP-loaded eIF2; 3 nM phospho-eIF2; 0.1 mM GDP; 25°C; homozygous R191H MEF lysate
T1 construct: gene Eif2b2; native endogenous complex in lysate of mouse embryonic fibroblasts; decamer of five subunits; with Translation initiation factor eIF2B subunit alpha; Translation initiation factor eIF2B subunit gamma; Translation initiation factor eIF2B subunit epsilon

5-HT1B = target: T2, 5-HT1B (Rattus norvegicus, UniProt P28564); assay: biochemical; parameters: CEREP panel radioligand binding displacement, % inhibition of control specific binding by 10 uM 2BAct; conditions: Type=Antagonist radioligand; read-out: % inhibition of Control specific binding
T2 construct: gene Htr1b
Method: (§1) Supplementary file elife-42940-supp1.xlsx: Supplementary file 1. (A) Binding of 2BAct at 10 μM to the CEREP panel of receptors/enzymes/ion channels. Compound binding was calculated as a % inhibition of the binding of a radioactively labeled ligand specific for each target. Results showing inhibition or stimulation higher than 50% are considered to represent significant effects of the test compound. (B) Pharmacokinetic data from 2BAct dosing in mice. (C) GO Biological Processes identified by enrichment analysis of RNA-seq data. (D) List of genes used for enrichment analysis of scRNA-seq data.

5-HT2B (h) = target: T3, 5-HT2B (h) (Homo sapiens, UniProt P41595); assay: biochemical; parameters: CEREP panel radioligand binding displacement, % inhibition of control specific binding by 10 uM 2BAct; conditions: Type=Agonist radioligand; read-out: % inhibition of Control specific binding
T3 construct: gene HTR2B
Method: as §1

5-HT4E (h) = target: T4, 5-HT4E (h) (Homo sapiens, UniProt Q13639); assay: biochemical; parameters: CEREP panel radioligand binding displacement, % inhibition of control specific binding by 10 uM 2BAct; conditions: Type=Antagonist radioligand; read-out: % inhibition of Control specific binding
T4 construct: gene HTR4; isoform 4E
Method: as §1

A3 (h) = target: T5, A3 (h) (Homo sapiens, UniProt P0DMS8); assay: biochemical; parameters: CEREP panel radioligand binding displacement, % inhibition of control specific binding by 10 uM 2BAct; conditions: Type=Agonist radioligand; read-out: % inhibition of Control specific binding
T5 construct: gene ADORA3
Method: as §1

B2 (h) [1] = target: T6, B2 (h) (Homo sapiens, UniProt P30411); assay: biochemical; parameters: CEREP panel radioligand binding displacement, % inhibition of control specific binding by 10 uM 2BAct; conditions: Type=Agonist radioligand; read-out: % inhibition of Control specific binding
T6 construct: gene BDKRB2
Method: as §1

CB2 (h) = target: T7, CB2 (h) (Homo sapiens, UniProt P34972); assay: biochemical; parameters: CEREP panel radioligand binding displacement, % inhibition of control specific binding by 10 uM 2BAct; conditions: Type=Agonist radioligand; read-out: % inhibition of Control specific binding
T7 construct: gene CNR2
Method: as §1

EP2 (h) = target: T8, EP2 (h) (Homo sapiens, UniProt P43116); assay: biochemical; parameters: CEREP panel radioligand binding displacement, % inhibition of control specific binding by 10 uM 2BAct; conditions: Type=Agonist radioligand; read-out: % inhibition of Control specific binding
T8 construct: gene PTGER2
Method: as §1

ET-A (h) = target: T9, ET-A (h) (Homo sapiens, UniProt P25101); assay: biochemical; parameters: CEREP panel radioligand binding displacement, % inhibition of control specific binding by 10 uM 2BAct; conditions: Type=Agonist radioligand; read-out: % inhibition of Control specific binding
T9 construct: gene EDNRA
Method: as §1

M2 (h) = target: T10, M2 (h) (Homo sapiens, UniProt P08172); assay: biochemical; parameters: CEREP panel radioligand binding displacement, % inhibition of control specific binding by 10 uM 2BAct; conditions: Type=Antagonist radioligand; read-out: % inhibition of Control specific binding
T10 construct: gene CHRM2
Method: as §1

MAO-A = target: T11, MAO-A (Rattus norvegicus, UniProt P21396); assay: biochemical; parameters: CEREP panel radioligand binding displacement, % inhibition of control specific binding by 10 uM 2BAct; conditions: Type=Antagonist radioligand; read-out: % inhibition of Control specific binding
T11 construct: gene Maoa
Method: as §1

UT (h) = target: T12, UT (h) (Homo sapiens, UniProt Q9UKP6); assay: biochemical; parameters: CEREP panel radioligand binding displacement, % inhibition of control specific binding by 10 uM 2BAct; conditions: Type=Agonist radioligand; read-out: % inhibition of Control specific binding
T12 construct: gene UTS2R
Method: as §1

a2B (h) = target: T13, a2B (h) (Homo sapiens, UniProt P18089); assay: biochemical; parameters: CEREP panel radioligand binding displacement, % inhibition of control specific binding by 10 uM 2BAct; conditions: Type=Antagonist radioligand; read-out: % inhibition of Control specific binding
T13 construct: gene ADRA2B
Method: as §1

b2 (h) [2] = target: T14, b2 (h) (Homo sapiens, UniProt P07550); assay: biochemical; parameters: CEREP panel radioligand binding displacement, % inhibition of control specific binding by 10 uM 2BAct; conditions: Type=Agonist radioligand; read-out: % inhibition of Control specific binding
T14 construct: gene ADRB2
Method: as §1

k (KOP) = target: T15, k (KOP) (Rattus norvegicus, UniProt P34975); assay: biochemical; parameters: CEREP panel radioligand binding displacement, % inhibition of control specific binding by 10 uM 2BAct; conditions: Type=Agonist radioligand; read-out: % inhibition of Control specific binding
T15 construct: gene Oprk1
Method: as §1

m (MOP) (h) = target: T16, m (MOP) (h) (Homo sapiens, UniProt P35372); assay: biochemical; parameters: CEREP panel radioligand binding displacement, % inhibition of control specific binding by 10 uM 2BAct; conditions: Type=Agonist radioligand; read-out: % inhibition of Control specific binding
T16 construct: gene OPRM1
Method: as §1

T12 sequence (Q9UKP6 whole entry): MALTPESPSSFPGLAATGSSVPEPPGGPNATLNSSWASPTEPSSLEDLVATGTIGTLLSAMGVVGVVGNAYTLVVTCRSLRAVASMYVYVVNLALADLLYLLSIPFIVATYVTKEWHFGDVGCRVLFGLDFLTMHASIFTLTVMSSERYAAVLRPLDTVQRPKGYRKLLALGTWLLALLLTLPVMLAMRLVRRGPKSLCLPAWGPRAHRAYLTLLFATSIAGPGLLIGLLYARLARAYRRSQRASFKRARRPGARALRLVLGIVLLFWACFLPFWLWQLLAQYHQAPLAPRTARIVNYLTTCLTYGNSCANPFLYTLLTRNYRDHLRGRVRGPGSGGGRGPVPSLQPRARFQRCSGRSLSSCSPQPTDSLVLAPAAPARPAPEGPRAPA
T14 sequence (P07550 whole entry): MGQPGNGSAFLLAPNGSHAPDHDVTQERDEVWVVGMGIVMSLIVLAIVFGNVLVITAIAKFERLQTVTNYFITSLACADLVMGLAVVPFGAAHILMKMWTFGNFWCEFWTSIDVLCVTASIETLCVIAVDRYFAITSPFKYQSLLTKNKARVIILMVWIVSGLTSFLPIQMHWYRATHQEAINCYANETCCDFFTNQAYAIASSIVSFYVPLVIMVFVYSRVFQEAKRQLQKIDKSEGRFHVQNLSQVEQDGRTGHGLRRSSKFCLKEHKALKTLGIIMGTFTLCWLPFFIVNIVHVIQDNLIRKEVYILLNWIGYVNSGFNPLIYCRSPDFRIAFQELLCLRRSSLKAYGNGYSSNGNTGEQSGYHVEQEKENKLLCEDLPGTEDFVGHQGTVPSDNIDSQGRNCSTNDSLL
T8 sequence (P43116 whole entry): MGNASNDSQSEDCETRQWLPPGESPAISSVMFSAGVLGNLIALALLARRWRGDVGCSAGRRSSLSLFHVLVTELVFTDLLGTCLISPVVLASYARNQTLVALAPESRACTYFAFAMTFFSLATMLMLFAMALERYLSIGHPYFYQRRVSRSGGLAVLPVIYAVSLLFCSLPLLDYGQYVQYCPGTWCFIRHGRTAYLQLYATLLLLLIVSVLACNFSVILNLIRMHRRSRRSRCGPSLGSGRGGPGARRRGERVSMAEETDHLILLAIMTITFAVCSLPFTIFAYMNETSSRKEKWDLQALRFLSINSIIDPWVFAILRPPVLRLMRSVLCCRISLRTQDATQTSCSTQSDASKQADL
T6 sequence (P30411 whole entry): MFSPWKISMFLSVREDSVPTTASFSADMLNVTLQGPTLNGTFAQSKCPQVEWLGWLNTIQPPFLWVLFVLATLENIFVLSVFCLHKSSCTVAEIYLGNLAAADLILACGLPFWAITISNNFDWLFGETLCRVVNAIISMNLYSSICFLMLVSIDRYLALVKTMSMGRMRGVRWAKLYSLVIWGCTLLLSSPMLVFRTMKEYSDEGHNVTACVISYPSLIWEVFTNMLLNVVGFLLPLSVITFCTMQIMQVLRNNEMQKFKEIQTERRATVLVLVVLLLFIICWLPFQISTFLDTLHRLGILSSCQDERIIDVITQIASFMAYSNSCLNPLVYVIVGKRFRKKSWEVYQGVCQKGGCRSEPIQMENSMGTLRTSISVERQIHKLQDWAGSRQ
T11 sequence (P21396 whole entry): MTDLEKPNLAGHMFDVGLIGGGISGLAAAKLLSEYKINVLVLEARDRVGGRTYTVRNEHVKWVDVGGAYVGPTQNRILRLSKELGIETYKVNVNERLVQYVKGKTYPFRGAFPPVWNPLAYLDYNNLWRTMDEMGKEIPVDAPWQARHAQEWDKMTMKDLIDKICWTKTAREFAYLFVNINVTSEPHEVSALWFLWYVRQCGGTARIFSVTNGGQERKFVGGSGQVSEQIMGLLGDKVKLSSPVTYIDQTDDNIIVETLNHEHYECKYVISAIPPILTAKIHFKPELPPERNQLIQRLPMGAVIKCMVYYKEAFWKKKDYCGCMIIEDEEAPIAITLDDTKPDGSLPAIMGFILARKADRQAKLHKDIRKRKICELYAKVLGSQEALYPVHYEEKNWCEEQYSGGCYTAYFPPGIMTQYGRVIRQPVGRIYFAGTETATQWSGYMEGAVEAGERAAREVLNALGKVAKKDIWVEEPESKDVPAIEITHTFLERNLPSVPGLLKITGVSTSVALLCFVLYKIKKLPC
T9 sequence (P25101 whole entry): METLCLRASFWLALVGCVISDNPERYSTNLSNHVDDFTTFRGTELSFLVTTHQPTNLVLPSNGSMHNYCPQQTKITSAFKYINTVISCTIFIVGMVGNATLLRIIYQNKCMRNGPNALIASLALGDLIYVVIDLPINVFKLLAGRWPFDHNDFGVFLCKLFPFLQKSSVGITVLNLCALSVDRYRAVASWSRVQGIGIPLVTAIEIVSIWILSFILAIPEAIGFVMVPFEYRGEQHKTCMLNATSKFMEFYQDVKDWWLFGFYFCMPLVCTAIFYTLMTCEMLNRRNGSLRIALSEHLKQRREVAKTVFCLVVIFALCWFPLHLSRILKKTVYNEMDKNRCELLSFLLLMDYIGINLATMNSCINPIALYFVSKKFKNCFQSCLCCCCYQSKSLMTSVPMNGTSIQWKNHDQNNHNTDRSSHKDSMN
T5 sequence (P0DMS8 whole entry): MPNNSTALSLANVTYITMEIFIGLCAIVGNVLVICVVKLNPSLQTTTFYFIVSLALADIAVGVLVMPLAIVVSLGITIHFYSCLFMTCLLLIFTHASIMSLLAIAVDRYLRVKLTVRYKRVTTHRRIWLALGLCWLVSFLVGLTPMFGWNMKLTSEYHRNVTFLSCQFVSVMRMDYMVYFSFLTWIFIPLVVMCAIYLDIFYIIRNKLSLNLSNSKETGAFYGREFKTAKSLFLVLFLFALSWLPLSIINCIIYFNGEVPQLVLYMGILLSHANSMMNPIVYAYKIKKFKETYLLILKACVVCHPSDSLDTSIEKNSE
T7 sequence (P34972 whole entry): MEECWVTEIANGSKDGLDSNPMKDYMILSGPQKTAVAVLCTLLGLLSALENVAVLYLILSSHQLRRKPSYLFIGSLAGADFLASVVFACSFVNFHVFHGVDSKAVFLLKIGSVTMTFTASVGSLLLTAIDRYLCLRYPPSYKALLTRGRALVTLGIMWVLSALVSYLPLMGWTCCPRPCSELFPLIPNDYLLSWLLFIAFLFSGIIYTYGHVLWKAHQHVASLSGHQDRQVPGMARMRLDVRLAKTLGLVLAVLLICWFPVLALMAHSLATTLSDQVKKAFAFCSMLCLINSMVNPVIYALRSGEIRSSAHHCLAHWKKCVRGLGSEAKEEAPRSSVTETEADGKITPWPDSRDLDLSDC
T15 sequence (P34975 whole entry): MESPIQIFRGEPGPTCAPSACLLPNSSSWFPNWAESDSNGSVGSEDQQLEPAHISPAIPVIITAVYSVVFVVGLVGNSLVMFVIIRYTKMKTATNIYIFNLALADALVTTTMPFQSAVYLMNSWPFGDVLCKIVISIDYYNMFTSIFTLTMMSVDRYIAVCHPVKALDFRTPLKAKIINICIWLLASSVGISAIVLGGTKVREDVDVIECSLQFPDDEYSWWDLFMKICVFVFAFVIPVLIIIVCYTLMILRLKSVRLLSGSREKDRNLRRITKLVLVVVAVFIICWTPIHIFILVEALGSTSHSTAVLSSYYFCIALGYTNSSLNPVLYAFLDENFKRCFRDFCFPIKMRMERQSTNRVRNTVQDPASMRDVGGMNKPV
T16 sequence (P35372 whole entry): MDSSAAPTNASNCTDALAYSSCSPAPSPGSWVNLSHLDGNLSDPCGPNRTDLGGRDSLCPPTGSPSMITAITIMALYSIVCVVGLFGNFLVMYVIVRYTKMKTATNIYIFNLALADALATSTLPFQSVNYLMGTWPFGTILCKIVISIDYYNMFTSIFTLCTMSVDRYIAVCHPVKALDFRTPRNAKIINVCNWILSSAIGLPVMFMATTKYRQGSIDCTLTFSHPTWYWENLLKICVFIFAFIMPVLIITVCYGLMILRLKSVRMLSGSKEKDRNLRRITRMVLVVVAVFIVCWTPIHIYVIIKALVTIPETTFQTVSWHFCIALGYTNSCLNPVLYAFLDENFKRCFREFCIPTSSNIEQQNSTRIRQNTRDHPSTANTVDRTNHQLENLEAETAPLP
T13 sequence (P18089 whole entry): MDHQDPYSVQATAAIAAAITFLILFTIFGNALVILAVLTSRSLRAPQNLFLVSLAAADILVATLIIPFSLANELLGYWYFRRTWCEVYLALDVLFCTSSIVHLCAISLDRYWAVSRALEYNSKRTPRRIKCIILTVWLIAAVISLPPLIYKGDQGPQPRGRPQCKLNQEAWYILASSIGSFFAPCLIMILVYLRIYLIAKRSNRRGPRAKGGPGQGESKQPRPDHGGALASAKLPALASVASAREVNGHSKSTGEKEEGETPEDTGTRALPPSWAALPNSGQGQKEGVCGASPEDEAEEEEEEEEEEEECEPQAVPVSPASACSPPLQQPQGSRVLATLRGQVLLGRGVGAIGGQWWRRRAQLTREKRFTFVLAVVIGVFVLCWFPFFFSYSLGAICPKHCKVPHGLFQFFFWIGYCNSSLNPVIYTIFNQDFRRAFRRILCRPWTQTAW
T2 sequence (P28564 whole entry): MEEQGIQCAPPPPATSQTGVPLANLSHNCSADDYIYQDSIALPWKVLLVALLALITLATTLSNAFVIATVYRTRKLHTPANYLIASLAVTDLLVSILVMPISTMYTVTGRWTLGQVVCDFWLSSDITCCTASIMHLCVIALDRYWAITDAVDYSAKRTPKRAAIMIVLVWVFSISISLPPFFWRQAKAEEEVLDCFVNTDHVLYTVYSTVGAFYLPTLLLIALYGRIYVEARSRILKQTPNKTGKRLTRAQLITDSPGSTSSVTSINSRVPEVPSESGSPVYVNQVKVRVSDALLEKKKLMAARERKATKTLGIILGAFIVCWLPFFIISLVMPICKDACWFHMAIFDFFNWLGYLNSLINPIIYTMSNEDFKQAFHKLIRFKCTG

O=C(COc1ccc(Cl)c(F)c1)NC12CC(NC(=O)c3cnc(C(F)F)cn3)(C1)C2 [2BAct]
EC50 (eIF2B): 7.3 nM | inhibition at 10 µM (5-HT1B): -8.8% | inhibition at 10 µM (5-HT2B (h)): 8.6% | inhibition at 10 µM (5-HT4E (h)): 8.2% | inhibition at 10 µM (A3 (h)): 20.6% | inhibition at 10 µM (B2 (h) [1]): 8.7% | inhibition at 10 µM (CB2 (h)): 2% | inhibition at 10 µM (EP2 (h)): -4% | inhibition at 10 µM (ET-A (h)): -5.3% | inhibition at 10 µM (M2 (h)): 4.2% | inhibition at 10 µM (MAO-A): 10.2% | inhibition at 10 µM (UT (h)): 5.8% | inhibition at 10 µM (a2B (h)): 12.2% | inhibition at 10 µM (b2 (h) [2]): 4.4% | inhibition at 10 µM (k (KOP)): 2.1% | inhibition at 10 µM (m (MOP) (h)): 3%
